Measured values reported in US10294202B2, “Pyrrolidinones as herbicides” (FMC Corporation, priority 2013, dated 2019).

Assays:
sedge, umbrella = test: Test B flooded paddy test; type: in vivo, Cyperus difformis; conditions: 500 g ai/ha, Flood; scale of 0 to 100 where 0 is no effect and 100 is complete control
In short: (§1)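 Treatment was made at the 2-leaf stage by dosing the standing floodwater, kept 3 cm above soil level for the whole test. Greenhouse exposure lasted 13 to 15 days. Response is a visual percent rating relative to controls, where a dash indicates no test result.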

ragweed = test: Test C pre-/postemergence herbicide test; type: in vivo, Ambrosia elatior
In short: (§2)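 Response scores range from 0, meaning no effect, to 100, meaning complete control, assigned visually by comparison with controls roughly two weeks (13 to 15 days) after spraying. Applications were made preemergence to seeded loam–sand soil and postemergence to 1- to 4-leaf plants.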

barnyardgrass [1] = test: Test B flooded paddy test; type: in vivo, Echinochloa crus-galli; conditions: 500 g ai/ha, Flood; scale of 0 to 100 where 0 is no effect and 100 is complete control
In short: as §1

waterhemp = test: Test C pre-/postemergence herbicide test; type: in vivo, Amaranthus rudis
In short: as §2

oat, wild = test: Test C pre-/postemergence herbicide test; type: in vivo, Avena fatua; conditions: Postemergence
In short: as §2

barnyardgrass [2] = test: Test C pre-/postemergence herbicide test; type: in vivo, Echinochloa crus-galli
In short: as §2

crabgrass, large = test: Test C pre-/postemergence herbicide test; type: in vivo, Digitaria sanguinalis
In short: as §2

johnsongrass = test: Test C pre-/postemergence herbicide test; type: in vivo, Sorghum halepense
In short: as §2

giant foxtail = test: Test A pre-/postemergence herbicide test; type: in vivo, Setaria faberii
In short: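 Scoring was visual, relative to untreated controls, on a 0–100 scale after about 10 greenhouse days. Preemergence treatment used a directed soil spray over seeded loam/sand; postemergence treatment targeted one- to two-leaf plants of 2–10 cm.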

ryegrass, Italian = test: Test C pre-/postemergence herbicide test; type: in vivo, Lolium multiflorum
In short: as §2

velvetleaf = test: Test C pre-/postemergence herbicide test; type: in vivo, Abutilon theophrasti
In short: as §2

[3] = Postemergence, 31 g ai/ha, scale 0 to 100 (0 no effect, 100 complete control)
[4] = Postemergence, 62 g ai/ha, scale 0 (no effect) to 100 (complete control)
[5] = Postemergence, 125 g ai/ha, scale 0 to 100 (0 no effect, 100 complete control)
[6] = Postemergence, 250 g ai/ha, scale 0 to 100 (0 no effect, 100 complete control)
[7] = Preemergence, 62 g ai/ha, scale 0 to 100 (0 no effect, 100 complete control)
[8] = Preemergence, 125 g ai/ha, scale 0 to 100
[9] = Preemergence, 31 g ai/ha, scale 0 to 100, 0 is no effect and 100 is complete control

O=C1NCC(c2cccc(OC(F)F)c2)C1C(=O)Nc1cccc(F)c1F (stereo not shown) [Compound 324]
5: Plant response rating, Ragweed (ragweed; [3]) | Plant response rating, Oat, Wild (oat, wild; 250 g ai/ha, scale 0 to 100 (0 no effect, 100 complete control))
98: Plant response rating (scale of 0 to 100; 0 is no effect, 100 is complete control), Barnyardgrass (barnyardgrass [2]; Preemergence, 250 g ai/ha) | Plant response rating, Crabgrass, Large (crabgrass, large; [8]) | Plant response rating (scale of 0 to 100), Crabgrass, Large (crabgrass, large; Preemergence, 250 g ai/ha)
55: Plant response rating, Barnyardgrass (barnyardgrass [2]; [5]) | Plant response rating, Velvetleaf (velvetleaf; [4]) | Plant response rating, Velvetleaf (velvetleaf; [6])
25: Plant response rating, Ragweed (ragweed; [5]) | Plant response rating, Crabgrass, Large (crabgrass, large; [3])
10: Plant response rating, Waterhemp (waterhemp; [4]) | Plant response rating, Johnsongrass (johnsongrass; [6]) | Ryegrass, Italian plant response rating (ryegrass, Italian; [7])
20: Plant response rating, Ragweed (ragweed; [4]) | Plant response rating, Waterhemp (waterhemp; [5])
35: Plant response rating, Barnyardgrass (barnyardgrass [2]; [4]) | Plant response rating, Ryegrass, Italian (ryegrass, Italian; [8]) | Velvetleaf plant response rating (velvetleaf; [7])
60: Ragweed plant response rating (ragweed; [7]) | Plant response rating, Crabgrass, Large (crabgrass, large; [4])
50: Plant response rating, Velvetleaf (velvetleaf; [5])
90: Barnyardgrass plant response rating (barnyardgrass [2]; [9]) | Plant response rating, Foxtail, Giant (giant foxtail; Postemergence, 125 g ai/ha, visual rating on 0 to 100 scale (0 no effect, 100 complete control), approx. 10 days) | Plant response rating, Foxtail, Giant (giant foxtail; Postemergence, 500 g ai/ha, 0 to 100 scale (0 no effect, 100 complete control)) | Plant response rating, Foxtail, Giant (giant foxtail; Preemergence, 125 g ai/ha, 0 to 100 scale where 0 is no effect and 100 is complete control) | Foxtail, Giant plant response rating (giant foxtail; Preemergence, 500 g ai/ha, visual rating on 0 to 100 scale (0 no effect, 100 complete control))
80: Plant response rating, Barnyardgrass (barnyardgrass [1]) | Plant response rating, Waterhemp (waterhemp; [8]) | Plant response rating, Johnsongrass (johnsongrass; [8])
70: Waterhemp plant response rating (waterhemp; [7]) | Plant response rating, Crabgrass, Large (crabgrass, large; [5])
85: Plant response rating (scale of 0 to 100), Johnsongrass (johnsongrass; Preemergence, 250 g ai/ha)
75: Plant response rating, Ragweed (ragweed; [8]) | Plant response rating, Crabgrass, Large (crabgrass, large; [6])
65: Plant response rating, Barnyardgrass (barnyardgrass [2]; [6]) | Johnsongrass plant response rating (johnsongrass; [7])
95: Barnyardgrass plant response rating (barnyardgrass [2]; [7]) | Plant response rating, Barnyardgrass (barnyardgrass [2]; Preemergence, 125 g ai/ha, scale 0 to 100 (0 no effect, 100 complete control)) | Crabgrass, Large plant response rating (crabgrass, large; [9]) | Crabgrass, Large plant response rating (crabgrass, large; [7])
0: Plant response rating, Sedge, Umbrella (sedge, umbrella) | Plant response rating, Waterhemp (waterhemp; [3]) | Plant response rating, Oat, Wild (oat, wild; 31 g ai/ha, scale 0 to 100 (0 no effect, 100 complete control)) | Plant response rating, Oat, Wild (oat, wild; 62 g ai/ha, scale 0 (no effect) to 100 (complete control)) | Plant response rating, Oat, Wild (oat, wild; 125 g ai/ha, scale 0 to 100 (0 no effect, 100 complete control)) | Plant response rating, Barnyardgrass (barnyardgrass [2]; [3]) | Plant response rating, Johnsongrass (johnsongrass; [3]) | Plant response rating, Johnsongrass (johnsongrass; [4]) | Plant response rating, Johnsongrass (johnsongrass; [5]) | Plant response rating, Ryegrass, Italian (ryegrass, Italian; [3]) | Plant response rating, Ryegrass, Italian (ryegrass, Italian; [4]) | Plant response rating, Ryegrass, Italian (ryegrass, Italian; [5]) | Plant response rating, Ryegrass, Italian (ryegrass, Italian; [6]) | Plant response rating, Velvetleaf (velvetleaf; [3])
40: Plant response rating, Ragweed (ragweed; [6]) | Plant response rating, Waterhemp (waterhemp; [6]) | Johnsongrass plant response rating (johnsongrass; [9]) | Plant response rating, Velvetleaf (velvetleaf; [8])
